Test results taken from patent publication US20230038201A1, “TRANSFER FILM, PHOTOSENSITIVE MATERIAL, PATTERN FORMING METHOD, MANUFACTURING METHOD OF CIRCUIT BOARD, AND MANUFACTURING METHOD OF TOUCH PANEL” (FUJIFILM Corporation, priority 2020, published 2023).
Like-named read-outs stand apart in the source and are kept apart here.

How the values were obtained:
[1] = Measurement of ε365 and ε365/ε313 of compound β (molar absorption coefficients in acetonitrile); format: physicochemical; design: key to ε365 of Compound β: molar absorption coefficient at 365 nm in (cm·mol/L)^−1; conditions: for ε365/ε313: compound β
From the text: (Measurement and Evaluation of ε365 and ε365/ε313)
A molar absorption coefficient ((cm·mol/L)^−1, “ε365”) of the compound β at 365 nm and a molar absorption coefficient ((cm·mol/L)^−1, “ε313”) of the compound β at 313 nm were obtained, and a value (ε365/ε313) obtained by divided ε365 by ε313 was obtained.
The ε365 and ε313 of the compound β are molar absorption coefficients measured by dissolving the compound β in acetonitrile. In a case where the compound β was insoluble in acetonitrile, a solvent for dissolving the compound β may be appropriately changed.

[2] = Measurement of pKa of compound β in ground state (acid titration, 0.1 N HCl, methanol/water); conditions: for pKa: methanol/water mixture
Method: Co., Ltd. In a case where the compound β was a nitrogen-containing aromatic compound, the pKa of the compound β in a ground state is intended to be a pKa of a conjugate acid of the compound β.
0.1 g of the compound β was dissolved in 20 ml of methanol, and 20 ml of ultrapure water was added thereto. This mixture was titrated using a 0.1 N-HCL aqueous solution, and the pH at ½ of the titration amount required up to the equivalence point was defined as the pKa (pKa of the compound β in a ground state).

[3] = molar absorption coefficient at 365 nm
[4] = molar absorption coefficient at 365 nm in acetonitrile
[5] = molar absorption coefficient at 365 nm, compound β alone
[6] = molar absorption coefficient at 365 nm, in acetonitrile
[7] = compound β, pKa of the conjugate acid for nitrogen-containing aromatic compounds
[8] = pKa in ground state, compound β, pKa of the conjugate acid for nitrogen-containing aromatic compounds
[9] = pKa of Compound β in ground state
[10] = pKa of Compound β in ground state, compound β alone
[11] = pKa of Compound β in ground state, compound β, ground state
[12] = pKa of Compound β in ground state, ground state

| SMILES | ε365 of Compound β [1] | ε365 of Compound β ([1]; compound β alone) | ε365/ε313 ([1]; in acetonitrile) | ε365 of Compound β [1, 3] | ε365 of Compound β [1, 4] | ε365 of Compound β [1, 5] | ε365 of Compound β [1, 6] | pKa in ground state [2, 7] | pKa [2, 8] | pKa [2, 9] | pKa [2, 10] | pKa [2, 11] | pKa [2, 12] | pKa of Compound β in ground state [2] | pKa of Compound β in ground state ([2]; compound β alone) | pKa of Compound β in ground state ([2]; compound β, ground state) | pKa of Compound β in ground state ([2]; ground state) | pKa (physchem) |
| --- | --- | --- | --- | --- | --- | --- | --- | --- | --- | --- | --- | --- | --- | --- | --- | --- | --- | --- |
| c1ccc2nc3ccccc3cc2c1 [Example B3, acridine] | 4900 | 4900 | >3 | 4900 | 4900 (cm·mol/L)^−1 | 4900 | 4900 (cm·mol/L)^−1 | 4.67 | 4.7 | 4.67 | 4.67 | 4.67 | 4.67 | – | – | – | – | – |
| Cc1nccc2ccccc12 [Example B6, 1-Me-isoquinoline] | <10 | <10 | – | <10 | <10 (cm·mol/L)^−1 | <10 | <10 (cm·mol/L)^−1 | 5.31 | – | – | – | – | – | 5.31 | 5.31 | 5.31 | 5.31 | – |
| Cc1cc(C)c2ccccc2n1 [Example B12, 2,4-dimethylquinoline] | <10 | – | – | <10 | <10 (cm·mol/L)^−1 | <10 | <10 (cm·mol/L)^−1 | – | 5.67 | 5.67 | 5.67 | 5.67 | 5.67 | – | – | – | – | – |
| Nc1ccncc1 [Example B13, 4-aminopyridine] | – | – | – | – | – | – | – | – | – | – | – | – | – | – | – | – | – | 9.2 |
| c1ccc2c(c1)cnc1ccccc12 [Phenanthridine] | – | – | <1 | – | – | – | – | – | 3.8 | – | – | – | – | – | – | – | – | – |
